In data set [1] the test system is IL-1β production in THP-1 cells (LPS and ATP; NLRP3 inflammasome activation). As to the kind of experiment: THP-1 IL-1β production inhibitory test. Format: cell-based, human. To be noted: PMA-differentiated THP-1 cells, LPS 50 ng/mL and ATP 5 mM, 2 hours, ELISA, read-out: IC50 (nM), IL-1β production. Put shortly: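 THP-1 cells were differentiated with 50 ng/mL PMA for 2 days, then held 15 min at 37 °C. Cells were stimulated with 50 ng/mL LPS plus 5 mM ATP for 2 h, and supernatant IL-1β was measured by ELISA. IC50 came from sigmoidal Emax nonlinear regression.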

Data set [2] deals with TNF-α production in THP-1 cells (LPS). As to the kind of experiment: TNF-α production inhibitory test. Format: cell-based. The settings on record: Homo sapiens; PMA-differentiated THP-1 cells, LPS 50 ng/mL, 2 hours, ELISA. The procedure:
TNF-α Production Inhibitory Test
To THP-1 cells, 50 ng/mL PMA (phorbol myristate acetate, SIGMA, P1585) was added and then the cells were cultured at 37° C. for 2 days. The culture medium was exchanged with serum-free RPMI-1640 medium, and a compound known in concentration was added. The cells were cultured at 37° C. for 15 minutes. LPS (lipopolysaccharide, SIMGA, L2880) was added such that the final concentrations of them became 50 ng/mL. The cells were cultured at 37° C. for 2 hours. The supernatant was collected and the concentration of TNF-α was measured by ELISA (DuoSet ELISA human TNF-α, R&D Systems, DY201). The concentration of TNF-α was plotted against the logarithm of the concentration of the test compound, and the IC50 value was calculated by sigmoidal Emax model nonlinear regression analysis.

A further data set concerns 3T3 NRU phototoxicity. The experiment in a line: In vitro phototoxicity test (3T3 NRU). Format: cell-based. The settings on record: ICH S10 / OECD 432 in vitro 3T3 NRU phototoxicity test. The text has this:
In Vitro Phototoxicity Test
The evaluation of in vitro phototoxicity tests was based on ICH S10: Guidelines for Evaluation of Phototoxicity of Drugs (Notification No. 0521-1) and OECD guideline for testing of chemicals 432: In vitro 3T3 NRU phototoxicity test, 2004, which was described in the OECD report.

For data set [3], the target named is human Ether-a-go-go Related Gene (hERG) channel (Homo sapiens, UniProt Q12809). As to the kind of experiment: Safety pharmacological test: hERG channel inhibitory effect. Format: biochemical. The procedure: Safety Pharmacological Test
As a safety pharmacological test, the human Ether-a-go-go Related Gene (hereinafter referred to as hERG) channel inhibitory effect was evaluated. The hERG channel inhibitory effect was evaluated using a modified method described in Combinatorial Chemistry & High Throughput Screening, 12, 1, 78-95 (2009).

Read-outs that look alike come from different tables or passages of the source.

Chain of human Ether-a-go-go Related Gene (hERG) channel (Q12809 whole entry): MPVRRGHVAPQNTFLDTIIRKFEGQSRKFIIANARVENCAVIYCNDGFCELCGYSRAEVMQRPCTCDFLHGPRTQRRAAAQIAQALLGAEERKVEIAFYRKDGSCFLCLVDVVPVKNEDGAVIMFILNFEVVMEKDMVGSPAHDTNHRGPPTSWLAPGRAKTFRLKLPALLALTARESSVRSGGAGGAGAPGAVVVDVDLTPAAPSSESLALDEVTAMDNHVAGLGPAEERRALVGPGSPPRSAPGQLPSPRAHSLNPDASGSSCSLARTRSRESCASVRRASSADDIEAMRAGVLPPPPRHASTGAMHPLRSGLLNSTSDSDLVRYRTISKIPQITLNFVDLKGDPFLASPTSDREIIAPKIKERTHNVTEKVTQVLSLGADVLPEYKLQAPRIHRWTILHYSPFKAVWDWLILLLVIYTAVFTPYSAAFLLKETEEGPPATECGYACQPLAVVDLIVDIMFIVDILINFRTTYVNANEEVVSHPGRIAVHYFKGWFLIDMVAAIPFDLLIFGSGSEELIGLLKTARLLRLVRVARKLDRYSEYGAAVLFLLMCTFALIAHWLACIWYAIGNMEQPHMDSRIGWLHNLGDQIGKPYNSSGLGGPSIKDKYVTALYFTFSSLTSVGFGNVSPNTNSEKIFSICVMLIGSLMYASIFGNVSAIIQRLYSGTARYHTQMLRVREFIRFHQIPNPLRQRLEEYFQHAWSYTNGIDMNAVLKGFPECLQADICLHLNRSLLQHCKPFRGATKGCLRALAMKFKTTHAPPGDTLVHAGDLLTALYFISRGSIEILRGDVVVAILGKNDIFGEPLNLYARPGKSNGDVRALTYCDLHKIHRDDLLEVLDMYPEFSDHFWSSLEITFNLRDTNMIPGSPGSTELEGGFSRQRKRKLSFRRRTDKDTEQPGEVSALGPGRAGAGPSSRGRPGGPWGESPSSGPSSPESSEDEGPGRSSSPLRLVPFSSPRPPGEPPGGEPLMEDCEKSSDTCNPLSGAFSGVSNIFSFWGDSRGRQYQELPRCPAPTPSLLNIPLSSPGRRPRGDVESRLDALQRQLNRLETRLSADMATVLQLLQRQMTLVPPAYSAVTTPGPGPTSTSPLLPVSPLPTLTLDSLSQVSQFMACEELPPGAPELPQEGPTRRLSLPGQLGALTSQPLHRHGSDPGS

Consider `Cc1nc(N[C@@H]2CCCC[C@H]2O)nnc1-c1ccc(OC(F)(F)F)cc1O` [Example 27, 2-(3-{[(1R,2R)-2-hydroxycyclohexyl]amino}-5-methyl-1,2,4-triazin-6-yl)-5-(trifluoromethoxy)phenol], for which the IC50 in data set [1] (Homo sapiens, THP-1, 2 h) is 10 nM; in data set [2] it was at least 10000 nM.

Consider `Cc1nc(N[C@@H]2CCOC[C@H]2O)nnc1-c1ccc(Cl)cc1O` [Example 31, (3S,4R)-4-{[6-(4-chloro-2-hydroxyphenyl)-5-methyl-1,2,4-triazin-3-yl]amino}oxan-3-ol], for which the IC50 in data set [1] (Homo sapiens, THP-1, 2 h) was 25 nM; in data set [2], at least 10000 nM.

In the case of `COc1ccc(-c2nnc(N[C@@H]3CCCC[C@H]3O)nc2C)c(O)c1` [Example 59, 2-(3-{[(1R,2R)-2-hydroxycyclohexyl]amino}-5-methyl-1,2,4-triazin-6-yl)-5-methoxyphenol], the IC50 is 14 nM in data set [1] (Homo sapiens, THP-1, 2 h); at least 10000 nM in data set [2]; at least 10000 nM in data set [3]. Besides, the phototoxic effect entry in the data set on 3T3 NRU phototoxicity is recorded as “no phototoxic effect”.

Turning to `Cc1nc(N[C@@H]2CCCN(C3CC3)C2)nnc1-c1ccc(C(F)(F)F)cc1O` [Example 73, 2-(3-{[(3R)-1-cyclopropylpiperidin-3-yl]amino}-5-methyl-1,2,4-triazin-6-yl)-5-(trifluoromethyl)phenol], the IC50 in data set [1] (Homo sapiens, THP-1, 2 h) was 1.3 nM; in data set [2], at least 10000 nM.

In the case of `Cc1nc(N[C@@H]2CCC[C@H](O)C2)nnc1-c1ccc(C(F)(F)F)cc1O` [Example 75, 2-(3-{[(1R,3S)-3-hydroxycyclohexyl]amino}-5-methyl-1,2,4-triazin-6-yl)-5-(trifluoromethyl)phenol], the IC50 in data set [1] (Homo sapiens, THP-1, 2 h) was 6.5 nM; in data set [2] it was at least 10000 nM; in data set [3], at least 10000 nM. Further, the phototoxic effect entry in the data set with 3T3 NRU phototoxicity is recorded as “no phototoxic effect”.

Turning to `CC1(O)CC(Nc2nnc(-c3ccc(C(F)(F)F)cc3O)c(C3CC3)n2)C1` (centres unmarked) [Example 108, 2-(5-cyclopropyl-3-{[(1s,3s)-3-hydroxy-3-methylcyclobutyl]amino}-1,2,4-triazin-6-yl)-5-(trifluoromethyl)phenol], the IC50 in data set [1] (Homo sapiens, THP-1, 2 h) is 21 nM; in data set [2] it was at least 10000 nM.

`Cc1nc(N[C@@H]2CCCC[C@H]2O)nnc1-c1ccc(OC(F)F)cc1O` [Example 131, 5-(difluoromethoxy)-2-(3-{[(1R,2R)-2-hydroxycyclohexyl]amino}-5-methyl-1,2,4-triazin-6-yl)phenol]: the IC50 in data set [1] (Homo sapiens, THP-1, 2 h) was 9.5 nM; in data set [2], at least 10000 nM; in data set [3], at least 10000 nM. In the data set with 3T3 NRU phototoxicity, the phototoxic effect result is listed as “no phototoxic effect”.

In the case of `Cc1nc(N[C@@H]2CCCC[C@H]2N)nnc1-c1ccc(C(F)(F)F)cc1O` [Example 132, 2-(3-{[(1R,2R)-2-aminocyclohexyl]amino}-5-methyl-1,2,4-triazin-6-yl)-5-(trifluoromethyl)phenol], the 50% inhibitory concentration (IC50) is 15 nM in data set [1] (Homo sapiens, THP-1, 2 h); at least 10000 nM in data set [2]; at least 10000 nM in data set [3]. Further, the phototoxic effect result in the data set with 3T3 NRU phototoxicity is recorded as “no phototoxic effect”.

On to `Cc1nc(NC[C@H]2CNCCO2)nnc1-c1ccc(C(F)(F)F)cc1O` [Example 141, 2-[5-methyl-3-({[(2R)-morpholin-2-yl]methyl}amino)-1,2,4-triazin-6-yl]-5-(trifluoromethyl)phenol], for which the IC50 is 470 nM in data set [1] (Homo sapiens, THP-1, 2 h) and at least 10000 nM in data set [2].

For the molecule `Cc1nc(N[C@@H]2CCCN(C)C2)nnc1-c1ccc(C(F)(F)F)cc1O` [Example 164], the IC50 in data set [1] was 1.5 nM; in data set [2] it was at least 10000 nM; in data set [3] it was at least 10000 nM. Also, in the data set on 3T3 NRU phototoxicity, the phototoxic effect entry is recorded as “no phototoxic effect”.

On to `Cc1nc(N[C@@H]2CCCN(C)C2)nnc1-c1ccc(OC(F)F)cc1O` [Example 174, 5-(difluoromethoxy)-2-(5-methyl-3-{[(3R)-1-methylpiperidin-3-yl]amino}-1,2,4-triazin-6-yl)phenol], for which the IC50 in data set [1] (Homo sapiens, THP-1, 2 h) is 1.1 nM; in data set [2], at least 10000 nM.

The record behind these values is patent US12692241B2, “Substituted triazine compound” (Nico Therapeutics, Inc., priority 2021, dated 2026).
